The record followed here is patent EP4707277A1, “NOVEL HETEROCYCLIC AMINE DERIVATIVES AND PHARMACEUTICAL COMPOSITION COMPRISING SAME” (Daewoong Pharmaceutical Co., Ltd., priority 2023, dated 2024).

Read-outs that look alike come from different tables or passages of the source. A value given as a limit tells only on which side of the number the result lay.

In one experiment the target is T1, BTK (Homo sapiens, UniProt Q06187).
T1 construct: purchased Signalchem B10-10H
Kind of experiment: Inhibitory activity against BTK, ADP-Glo Kinase system (Promega). In kind it is biochemical. The method, then:
(§1) Inhibitory activities against BTK and ITK were measured for the compounds prepared in the above Examples as follows.
(§2) The inhibitory activities against BTK and ITK were evaluated using 'ADP-Glo™ Kinase system' (Promega Corporation). In the case of this evaluation method, activation was measured by quantifying the amount of ADP produced during the kinase reaction, which was utilized to measure the inhibitory activities against BTK and ITK.
(§3) Specifically, the inhibitory activities against BTK and ITK were measured using BTK kinase (Signalchem, B10-10H), ITK kinase (Signalchem, I13-11G-10), and ADP-Glo kinase assay kit (Promega, V9102). Recombinant purified human BTK and ITK were diluted with 1 x kinase reaction buffer (40 mM Tris-Cl, pH 7.5, 20 mM MgCl2, 0.1 mg/mL BSA, 2 mM MnCl2 and 50 uM DTT) and added to a 96 well plate (ITK: final concentration of 4 ng per reaction/BTK: final concentration of 10 ng per reaction). The compounds prepared in the previous Examples were treated so as to be finally a 1% DMSO aqueous solution, and a substrate cocktail containing ATP (1mM or Km ATP (BTK: 10 uM /ITK: 25uM)) and 0.2 ug/ul of Poly (Glu4,Tyr1) peptide (BTK and ITK final concentration) in the total 25 uL reactants was added to a 96-well plate to initiate enzymatic reaction. After incubation (30°C) for 1 hour, equivalent volume (25 uL per reaction) of ADP Glo was added, and incubated (30°C) for 40 minutes at room temperature. Then, a kinase detection reagent (45 uL per reaction) was added, and incubated (30°C) for 30 minutes at room temperature. The kinase activity was measured by chemiluminescence according to the instructions of ADP Glo kinase assay kit, and the inhibitory activity of the compounds according to the present disclosure was calculated. For the analysis of the results of each compound, Microsoft Excel was used, and IC50 values were calculated by GraphPad Prism software.
For orientation: In ADP-Glo the light output rises with the ADP produced.

The target in a further experiment is T2, ITK (Homo sapiens, UniProt Q08881).
T2 construct: purchased Signalchem I13-11G-10
T2 sequence (Q08881 1-620): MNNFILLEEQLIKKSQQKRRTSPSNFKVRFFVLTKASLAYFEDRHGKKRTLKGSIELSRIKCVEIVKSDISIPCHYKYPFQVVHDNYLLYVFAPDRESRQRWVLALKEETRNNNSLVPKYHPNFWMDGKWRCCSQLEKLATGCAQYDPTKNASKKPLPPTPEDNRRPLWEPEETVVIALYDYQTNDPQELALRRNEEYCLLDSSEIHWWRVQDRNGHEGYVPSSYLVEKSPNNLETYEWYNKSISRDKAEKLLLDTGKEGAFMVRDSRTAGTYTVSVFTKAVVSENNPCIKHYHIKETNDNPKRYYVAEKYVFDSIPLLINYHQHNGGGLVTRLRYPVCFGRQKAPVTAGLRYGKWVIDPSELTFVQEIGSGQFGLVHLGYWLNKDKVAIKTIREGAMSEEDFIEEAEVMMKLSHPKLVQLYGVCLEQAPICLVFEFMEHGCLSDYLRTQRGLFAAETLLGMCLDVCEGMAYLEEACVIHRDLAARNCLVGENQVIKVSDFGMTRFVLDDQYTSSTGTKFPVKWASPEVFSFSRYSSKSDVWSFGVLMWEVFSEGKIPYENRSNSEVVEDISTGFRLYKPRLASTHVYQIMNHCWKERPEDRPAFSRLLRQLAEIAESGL
Kind of experiment: Inhibitory activity against ITK, ADP-Glo Kinase system (Promega). Type of experiment: biochemical. How it is done: as §1, §2, §3

[1] abbreviates: 1mM ATP, read-out: BTK IC50(nM) 1mM ATP.
Setting [2] is: 1mM ATP, read-out: ITK IC50(nM) 1mM ATP.
Where [3] appears, read: Km ATP (BTK: 10 uM), read-out: BTK IC50(nM) Km ATP.
Setting [4] is: Km ATP (ITK: 25uM), read-out: ITK IC50(nM) Km ATP.

T1 sequence (Q06187 whole entry): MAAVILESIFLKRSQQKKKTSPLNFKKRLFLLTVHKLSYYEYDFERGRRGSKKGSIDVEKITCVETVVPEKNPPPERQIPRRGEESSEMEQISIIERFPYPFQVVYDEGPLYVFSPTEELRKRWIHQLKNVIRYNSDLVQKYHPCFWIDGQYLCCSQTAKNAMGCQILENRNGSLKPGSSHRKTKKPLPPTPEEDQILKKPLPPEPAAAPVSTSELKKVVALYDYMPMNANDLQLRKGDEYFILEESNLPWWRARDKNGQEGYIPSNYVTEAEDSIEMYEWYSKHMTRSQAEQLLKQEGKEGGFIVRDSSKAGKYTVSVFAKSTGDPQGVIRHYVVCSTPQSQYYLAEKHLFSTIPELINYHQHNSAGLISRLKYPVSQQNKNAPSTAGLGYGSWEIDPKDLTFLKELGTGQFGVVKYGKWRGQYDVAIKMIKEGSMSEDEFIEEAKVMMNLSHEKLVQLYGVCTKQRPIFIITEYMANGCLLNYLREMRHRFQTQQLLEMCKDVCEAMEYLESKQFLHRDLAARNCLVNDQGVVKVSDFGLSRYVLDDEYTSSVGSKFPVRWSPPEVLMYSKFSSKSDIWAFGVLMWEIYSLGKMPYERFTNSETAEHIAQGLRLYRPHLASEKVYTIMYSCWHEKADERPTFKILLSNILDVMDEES

Broadly, the IC50 is the concentration that gives 50% inhibition. As for `C=CC(=O)N1CCC[C@H](Oc2nc(Nc3ncc(C)s3)cc3c2ccn3CC)C1` [Example 153, (S)-1-(3-((1-ethyl-6-((5-methylthiazol-2-yl)amino)-1H-pyrrolo[3,2-c]pyridin-4-yl)oxy)piperidin-1-yl)prop-2-en-1-one], the IC50 on BTK (setting [1]) was at most 20 nM; at ITK (setting [2]), 20 to 100 nM.

For the compound `C=CC(=O)N1CCC12CC(Oc1nc(Nc3ncc(C)s3)cc3c1ccn3C)C2` (centres unmarked) [Example 136, 1-(6-((1-methyl-6-((5-methylthiazol-2-yl)amino)-1H-pyrrolo[3,2-c]pyridin-4-yl)oxy)-1-azaspiro[3.3]heptan-1-yl)prop-2-en-1-one], the IC50 at BTK (setting [1]) and on ITK (setting [2]) was at most 20 nM throughout.

Turning to `C=CC(=O)N1CC=C(c2nc(Nc3ncc(C)s3)cc3c2ccn3CC2CCC(F)(F)CC2)CC1` [Example 11, 1-(4-(1-((4,4-difluorocyclohexyl)methyl)-6-((5-methylthiazol-2-yl)amino)-1H-pyrrolo[3,2-c]pyridin-4-yl)-3,6-dihydropyridin-1(2H)-yl)prop-2-en-1-one], the IC50 on BTK (setting [3]) and at ITK (setting [4]) was at most 20 nM in each case.

As to `C=CC(=O)N1CC[C@H](Oc2nc(Nc3cccn(C)c3=O)cc3c2ccn3C(C)C)C1` [Example 198, (S)-3-((4-((1-acryloylpyrrolidin-3-yl)oxy)-1-isopropyl-1H-pyrrolo[3,2-c]pyridin-6-yl)amino)-1-methylpyridin-2(1H)-one], the IC50 on BTK (setting [1]) and at ITK (setting [2]) was above 500 nM each time.

Regarding `C=CC(=O)N1CC(C)(Oc2nc(Nc3ncc(C)s3)cc3c2ccn3CC2CCCC2)C1` [Example 178, 1-(3-((1-(cyclopentylmethyl)-6-((5-methylthiazol-2-yl)amino)-1H-pyrrolo[3,2-c]pyridin-4-yl)oxy)-3-methylazetidin-1-yl)prop-2-en-1-one], the IC50 at BTK (setting [1]) and at ITK (setting [2]) was at most 20 nM each time.

Regarding `C=CC(=O)N1C2C=C(c3nc(Nc4ncc(C)s4)cc4c3ccn4CC(F)F)CC1CC2` (centres unmarked) [Example 34, 1-(3-(1-(2,2-difluoroethyl)-6-((5-methylthiazol-2-yl)amino)-1H-pyrrolo[3,2-c]pyridin-4-yl)-8-azabicyclo[3.2.1]oct-2-en-8-yl)prop-2-en-1-one], the IC50 was at most 20 nM at BTK (setting [1]), at most 20 nM at BTK (setting [3]), 20 to 100 nM on ITK (setting [2]) and at most 20 nM on ITK (setting [4]).

For the compound `C=CC(=O)N1C[C@H](F)[C@H](Oc2nc(Nc3ccn(C)n3)cc3c2ccn3CC(C)C)C1` [Example 197, 1-((3S,4R)-3-fluoro-4-((1-isobutyl-6-((1-methyl-1H-pyrazol-3-yl)amino)-1H-pyrrolo[3,2-c]pyridin-4-yl)oxy)pyrrolidin-1-yl)prop-2-en-1-one], the IC50 on BTK (setting [1]) and on ITK (setting [2]) was above 500 nM throughout.

For the compound `C=CC(=O)Nc1cccc(-c2nc(Nc3ncc(C)s3)cc3c2ccn3CC(C)C)c1C` [Example 62, N-(3-(1-isobutyl-6-((5-methylthiazol-2-yl)amino)-1H-pyrrolo[3,2-c]pyridin-4-yl)-2-methylphenyl)acrylamide], the IC50 at BTK (setting [1]) is at most 20 nM; on ITK (setting [2]), 20 to 100 nM.

Regarding `C=CC(=O)N1C[C@H](F)[C@H](Oc2nc(Nc3ncc(C#N)s3)cc3c2ccn3CC(C)C)C1` [Example 181, 2-((4-(((3R,4S)-1-acryloyl-4-fluoropyrrolidin-3-yl)oxy)-1-isobutyl-1H-pyrrolo[3,2-c]pyridin-6-yl)amino)thiazole-5-carbonitrile], the IC50 on BTK (setting [1]) and on ITK (setting [2]) was at most 20 nM in each case.

On to `C=CC(=O)N1CC[C@@H]1COc1nc(Nc2ncc(C)s2)cc2c1ccn2C1CCCC1` [Example 223, (R)-1-(2-(((1-cyclopentyl-6-((5-methylthiazol-2-yl)amino)-1H-pyrrolo[3,2-c]pyridin-4-yl)oxy)methyl)azetidin-1-yl)prop-2-en-1-one], for which the IC50 on BTK (setting [1]) and on ITK (setting [2]) was at most 20 nM in each case.

Regarding `Cc1cnc(Nc2cc3c(ccn3CC(C)C)c(O[C@@H]3CN(C(=O)CCl)C[C@@H]3F)n2)s1` [Example 229, 2-chloro-1-((3S,4R)-3-fluoro-4-((1-isobutyl-6-((5-methylthiazol-2-yl)amino)-1H-pyrrolo[3,2-c]pyridin-4-yl)oxy)pyrrolidin-1-yl)ethan-1-one], the IC50 on BTK (setting [1]) was 20 to 100 nM; at ITK (setting [2]) it was at most 20 nM.

On to `C=CC(=O)N1CC=C(c2nc(Nc3ncc(C)s3)cc3c2ccn3CC(F)F)C(C)C1` (centres unmarked) [Example 25, 1-(4-(1-(2,2-difluoroethyl)-6-((5-methylthiazol-2-yl)amino)-1H-pyrrolo[3,2-c]pyridin-4-yl)-3-methyl-3,6-dihydropyridin-1(2H)-yl)prop-2-en-1-one], for which the IC50 on BTK (setting [1]) and on ITK (setting [2]) was above 500 nM throughout.

On to `C=CC(=O)N1C2C=C(c3nc(Nc4ncc(C)s4)cc4c3ccn4CC(C)C)CC1CC2` (centres unmarked) [Example 32, 1-(3-(1-isobutyl-6-((5-methylthiazol-2-yl)amino)-1H-pyrrolo[3,2-c]pyridin-4-yl)-8-azabicyclo[3.2.1]oct-2-en-8-yl)prop-2-en-1-one], for which the IC50 at BTK (setting [1]), on BTK (setting [3]), on ITK (setting [2]) and at ITK (setting [4]) was at most 20 nM throughout.

For `C=CC(=O)N1CC(C)(Oc2nc(Nc3ncc(C)s3)cc3c2ccn3CCC(C)C)C1` [Example 177, 1-(3-((1-isopentyl-6-((5-methylthiazol-2-yl)amino)-1H-pyrrolo[3,2-c]pyridin-4-yl)oxy)-3-methylazetidin-1-yl)prop-2-en-1-one], the IC50 at BTK (setting [1]) and at ITK (setting [2]) was at most 20 nM each time.

Take `C=CC(=O)N1C2C=C(c3nc(Nc4ncc(C)s4)cc4c3ccn4CC3(C(F)(F)F)CC3)CC1CC2` (centres unmarked) [Example 30, 1-(3-(6-((5-methylthiazol-2-yl)amino)-1-((1-(trifluoromethyl)cyclopropyl)methyl)-1H-pyrrolo[3,2-c]pyridin-4-yl)-8-azabicyclo[3.2.1]oct-2-en-8-yl)prop-2-en-1-one]: the IC50 at BTK (setting [1]) and on ITK (setting [2]) was at most 20 nM throughout.

As to `C=CC(=O)N1CC=C(c2nc(Nc3cc(C(F)(F)F)ccn3)cc3c2ccn3C(C)C)CC1` [Example 48, 1-(4-(1-isopropyl-6-((4-(trifluoromethyl)pyridin-2-yl)amino)-1H-pyrrolo[3,2-c]pyridin-4-yl)-3,6-dihydropyridin-1(2H)-yl)prop-2-en-1-one], the IC50 at BTK (setting [1]) and at ITK (setting [2]) was 20 to 100 nM in each case.

For `C=CC(=O)Nc1cc(-c2nc(Nc3ncc(C)s3)cc3c2ccn3C)ccc1C` [Example 55, N-(2-methyl-5-(1-methyl-6-((5-methylthiazol-2-yl)amino)-1H-pyrrolo[3,2-c]pyridin-4-yl)phenyl)acrylamide], the IC50 on BTK (setting [3]) and at ITK (setting [4]) was at most 20 nM each time.

With `C=CC(=O)N1CC[C@H](Oc2nc(Nc3cc(F)ccc3C)cc3c2ccn3C)C1` [Example 138, (S)-1-(3-((6-((5-fluoro-2-methylphenyl)amino)-1-methyl-1H-pyrrolo[3,2-c]pyridin-4-yl)oxy)pyrrolidin-1-yl)prop-2-en-1-one], the IC50 on BTK (setting [1]) and at ITK (setting [2]) was above 500 nM in each case.

Regarding `C=CC(=O)N1CCC[C@H](Oc2nc(Nc3ncc(C)s3)cc3c2ccn3C2CCCC2)C1` [Example 151, (S)-1-(3-((1-cyclopentyl-6-((5-methylthiazol-2-yl)amino)-1H-pyrrolo[3,2-c]pyridin-4-yl)oxy)piperidin-1-yl)prop-2-en-1-one], the IC50 was at most 20 nM on BTK (setting [1]) and 20 to 100 nM on ITK (setting [2]).

On to `C=CC(=O)N1C[C@@H](Oc2nc(Nc3ncc(C)s3)cc3c2ccn3CC2CC2)C[C@@H]1C` [Example 180, 1-((2S,4S)-4-((1-(cyclopropylmethyl)-6-((5-methylthiazol-2-yl)amino)-1H-pyrrolo[3,2-c]pyridin-4-yl)oxy)-2-methylpyrrolidin-1-yl)prop-2-en-1-one], for which the IC50 at BTK (setting [1]) and at ITK (setting [2]) was at most 20 nM each time.
